Measurements from paper PMC12016531 (Applied and Environmental Microbiology, 2025).

Legend:
[1] = tested on: L. monocytogenes ATCC 15313; experiment: MIC/MBC microdilution; format: cell-based, Listeria monocytogenes; conditions: lowest concentration that killed 99.9%; TSB-YE; highest concentration 100 µM
[2] = tested on: L. monocytogenes CMCC 54002; experiment: MIC/MBC microdilution; format: cell-based, Listeria monocytogenes; conditions: lowest concentration that killed 99.9%; TSB-YE; highest concentration 100 µM
[3] = tested on: L. monocytogenes ATCC BAA-751; experiment: MIC/MBC microdilution; format: cell-based, Listeria monocytogenes; conditions: lowest concentration that killed 99.9%; TSB-YE; highest concentration 100 µM
[4] = tested on: L. monocytogenes ATCC 19112; experiment: MIC/MBC microdilution; format: cell-based, Listeria monocytogenes; conditions: lowest concentration that killed 99.9%; TSB-YE; highest concentration 100 µM
[5] = tested on: L. monocytogenes ATCC 19113; experiment: MIC/MBC microdilution; format: cell-based, Listeria monocytogenes; conditions: lowest concentration that killed 99.9%; TSB-YE; highest concentration 100 µM
[6] = tested on: L. monocytogenes ATCC 19114; experiment: MIC/MBC microdilution; format: cell-based, Listeria monocytogenes; conditions: lowest concentration that killed 99.9%; TSB-YE; highest concentration 100 µM
L. monocytogenes LM201 = experiment: MIC/MBC microdilution; format: cell-based, Listeria monocytogenes; conditions: lowest concentration that killed 99.9%; TSB-YE; highest concentration 100 µM
[7] = tested on: L. monocytogenes ATCC 19115; experiment: MIC/MBC microdilution; format: cell-based, Listeria monocytogenes; conditions: lowest concentration that killed 99.9%; TSB-YE; highest concentration 100 µM
[8] = tested on: L. monocytogenes ATCC 13932; experiment: MIC/MBC microdilution; format: cell-based, Listeria monocytogenes; conditions: lowest concentration that killed 99.9%; TSB-YE; highest concentration 100 µM
[9] = tested on: L. monocytogenes ATCC 19116; experiment: MIC/MBC microdilution; format: cell-based, Listeria monocytogenes; conditions: lowest concentration that killed 99.9%; TSB-YE; highest concentration 100 µM
[10] = tested on: L. monocytogenes ATCC 19117; experiment: MIC/MBC microdilution; format: cell-based, Listeria monocytogenes; conditions: lowest concentration that killed 99.9%; TSB-YE; highest concentration 100 µM
[11] = tested on: L. monocytogenes ATCC 19118; experiment: MIC/MBC microdilution; format: cell-based, Listeria monocytogenes; conditions: lowest concentration that killed 99.9%; TSB-YE; highest concentration 100 µM
[12] = tested on: Acinetobacter baumannii ATCC 19606; experiment: MIC/MBC microdilution; format: cell-based; conditions: NB, highest concentration 100 µM
Experimental: (§1) The microdilution method ([25]) was used to measure the MIC of mycoidesin against indicator strains (Table S2). HPLC-purified mycoidesin was weighed and dissolved in a liquid culture medium to prepare various concentrations of mycoidesin (200.00, 100.00, 50.00, 25.00, 12.50, 6.25, 3.13, 1.56, 0.78, 0.39, 0.20, and 0.10 µM). A volume of 50 µL of different concentrations of mycoidesin solutions and 50 µL culture (1 × 10^6 CFU/mL) of the indicator strain were mixed in 96-well plates. The final concentrations of mycoidesin were 100.00, 50.00, 25.00, 12.50, 6.25, 3.13, 1.56, 0.78, 0.39, 0.20, 0.10, and 0.05 µM. […] The minimum bactericidal concentration (MBC) was the lowest concentration that killed 99.9% of the bacterial population. Nisin A was purified (Cayman Chemical, USA) as previously described ([26]) and was used to measure and compare the MIC values of L. monocytogenes strains and mycoidesin.

[13] = tested on: Escherichia coli ATCC 25922; experiment: MIC/MBC microdilution; format: cell-based; conditions: NB, highest concentration 100 µM
Experimental: as §1

[14] = tested on: Klebsiella pneumoniae CMCC 46117; experiment: MIC/MBC microdilution; format: cell-based; conditions: NB, highest concentration 100 µM
Experimental: as §1

[15] = tested on: Pseudomonas aeruginosa ATCC 27853; experiment: MIC/MBC microdilution; format: cell-based; conditions: NB, highest concentration 100 µM
Experimental: as §1

[16] = tested on: Salmonella Typhimurium ATCC 14028; experiment: MIC/MBC microdilution; format: cell-based; conditions: NB, highest concentration 100 µM
Experimental: as §1

[17] = tested on: Salmonella enterica serotype Paratyphi CMCC 50093; experiment: MIC/MBC microdilution; format: cell-based; conditions: NB, highest concentration 100 µM
Experimental: as §1

[18] = tested on: Serratia marcescens CMCC 41002; experiment: MIC/MBC microdilution; format: cell-based; conditions: NB, highest concentration 100 µM
Experimental: as §1

[19] = tested on: Shigella serogroups CMCC 51105; experiment: MIC/MBC microdilution; format: cell-based; conditions: NB, highest concentration 100 µM
Experimental: as §1

[20] = tested on: Bacillus cereus CMCC63301; experiment: Intracellular accumulation of UDP-MurNAc-pentapeptide; format: cell-based; conditions: mycoidesin 1× and 2× MIC, vancomycin 10× MIC; 60 min; chloramphenicol 130 µg/mL pre-incubation 15 min; HPLC, MS
Experimental: Bacillus cereus CMCC63301 and L. monocytogenes ATCC19111 were grown to an OD600 of 0.3 and incubated with chloramphenicol (130 µg/mL) for 15 min. Mycoidesin (1× and 2× MIC) and vancomycin (10× MIC; positive control) were added and incubated for 60 min. The cells were collected, added to boiling water, treated for 15 min, centrifuged, and the supernatant was lyophilized. The intracellular accumulation of the peptidoglycan precursor UDP-MurNAc-pentapeptide was analyzed using HPLC (Hypersil ODS column) and identified via mass spectrometry ([27]).

[21] = tested on: L. monocytogenes ATCC19111; experiment: Time-kill curves (OD600 and CFU); format: cell-based, Listeria monocytogenes
Excerpt: Cell growth was monitored hourly by measuring CFU on TSB plates and OD600 values of the cultures.

[22] = tested on: L. monocytogenes ATCC19111; experiment: Potassium release and SEM (cell membrane damage); format: cell-based, Listeria monocytogenes; conditions: potassium release 1×, 8×, 32× MIC, 1 h; SEM 8× and 32× MIC, 3 h, 30°C
Experimental: The amount of potassium released was measured using a HI96750 Potassium Photometer.
Bacillus cereus CMCC63301 and L. monocytogenes ATCC19111 were grown in TSB medium to an OD600 of 0.3. […] The cells were harvested after centrifugation (6,000 × g, 10 min), washed with PBS buffer thrice, and fixed with 2.5% (vol/vol) glutaraldehyde for 12 h at 4°C. Subsequently, the cells were subjected to gradient dehydration for 10 min, treated with isoamyl acetate for 10 min, dried with a lyophilizer for 12 h, coated with gold-palladium, and observed using a Zeiss Gemini360 instrument ([18]).

B. subtilis CMCC63501 = experiment: Stability: residual antimicrobial activity by agar diffusion; format: physicochemical, Bacillus subtilis; conditions: up to 12 h
Experimental: After treatment for 2, 4, 6, 8, 10, and 12 h, the residual antimicrobial activity of the samples was measured using the agar diffusion method, with B. subtilis CMCC63501 as the indicator strain.

[23] = lowest concentration that killed 99.9%

How did the MBC [1] turn out when C/C=C1\NC(=O)CNC(=O)[C@H](CCSC)NC(=O)[C@@H]2CS[C@@H](C)[C@@H](NC(=O)[C@@H]3CSC[C@@H](NC(=O)[C@H](CC(C)C)NC(=O)[C@H](CC(N)=O)NC(=O)[C@@H](N)Cc4ccc(O)cc4)C(=O)N[C@@H](C)C(=O)N[C@@H](C)C(=O)N[C@@H]([C@@H](C)CC)C(=O)N[C@@H](C)C(=O)N[C@@H](CC(=O)O)C(=O)N[C@@H](C)C(=O)N[C@@H](C)C(=O)NCC(=O)N[C@@H](CC(C)C)C(=O)N[C@@H](CCCCN)C(=O)NCC(=O)N[C@@H](CC(N)=O)C(=O)N[C@@H](Cc4ccc(O)cc4)C(=O)NCC(=O)N[C@@H](CCCCN)C(=O)N[C@@H](Cc4ccccc4)C(=O)N3)C(=O)N[C@@H](Cc3ccc(O)cc3)C(=O)N[C@H](CSC[C@@H](C(=O)NCC(=O)N[C@@H](CO)C(=O)O)NC(=O)[C@H](CO)NC(=O)[C@H](C(C)C)NC1=O)C(=O)N[C@@H](C)C(=O)N[C@@H](CCC(=O)O)C(=O)N2 [mycoidesin] was run?
The MBC was “NA (No activity was detected even at the highest concentration of mycoidesin (100 µM))”.

What about the MBC [2] of the same compound?
Its MBC is “NA (No activity was detected even at the highest concentration of mycoidesin (100 µM))”.

What about the MBC [3] of the same compound?
Its MBC is “NA (No activity was detected even at the highest concentration of mycoidesin (100 µM))”.

And the MBC [4]?
Its MBC is “NA (No activity was detected even at the highest concentration of mycoidesin (100 µM))”.

What about the MBC [5] of the same compound?
The MBC was “NA (No activity was detected even at the highest concentration of mycoidesin (100 µM))”.

What about the MBC [6] of the same compound?
The MBC was “NA (No activity was detected even at the highest concentration of mycoidesin (100 µM))”.

What about the MBC (L. monocytogenes LM201) of the same compound?
Its MBC is “NA (No activity was detected even at the highest concentration of mycoidesin (100 µM))”.

What about the MBC [7] of the same compound?
Its MBC is “NA (No activity was detected even at the highest concentration of mycoidesin (100 µM))”.

And the MBC [8]?
Its MBC is “NA (No activity was detected even at the highest concentration of mycoidesin (100 µM))”.

And the MBC [9]?
The MBC was “NA (No activity was detected even at the highest concentration of mycoidesin (100 µM))”.

What about the MBC [10] of the same compound?
Its MBC is “NA (No activity was detected even at the highest concentration of mycoidesin (100 µM))”.

What about the MBC [11] of the same compound?
The MBC was “NA (No activity was detected even at the highest concentration of mycoidesin (100 µM))”.

What about the MBC [12, 23] of the same compound?
The MBC was “NA (No activity was detected even at the highest concentration of mycoidesin (100 µM))”.

What about the MIC ([12]; microdilution, 30°C, 16 h) of the same compound?
Its MIC is “NA (No activity was detected even at the highest concentration of mycoidesin (100 µM))”.

And the MBC [13, 23]?
The MBC was “NA (No activity was detected even at the highest concentration of mycoidesin (100 µM))”.

What about the MIC ([13]; microdilution, 30°C, 16 h) of the same compound?
The MIC was “NA (No activity was detected even at the highest concentration of mycoidesin (100 µM))”.

What about the MBC [14, 23] of the same compound?
The MBC was “NA (No activity was detected even at the highest concentration of mycoidesin (100 µM))”.

And the MIC ([14]; microdilution, 30°C, 16 h)?
Its MIC is “NA (No activity was detected even at the highest concentration of mycoidesin (100 µM))”.

And the MBC [15, 23]?
The MBC was “NA (No activity was detected even at the highest concentration of mycoidesin (100 µM))”.

And the MIC ([15]; microdilution, 30°C, 16 h)?
Its MIC is “NA (No activity was detected even at the highest concentration of mycoidesin (100 µM))”.

What about the MBC [16, 23] of the same compound?
Its MBC is “NA (No activity was detected even at the highest concentration of mycoidesin (100 µM))”.

And the MIC ([16]; microdilution, 30°C, 16 h)?
Its MIC is “NA (No activity was detected even at the highest concentration of mycoidesin (100 µM))”.

And the MBC [17, 23]?
The MBC was “NA (No activity was detected even at the highest concentration of mycoidesin (100 µM))”.

And the MIC ([17]; microdilution, 30°C, 16 h)?
Its MIC is “NA (No activity was detected even at the highest concentration of mycoidesin (100 µM))”.

And the MBC [18, 23]?
Its MBC is “NA (No activity was detected even at the highest concentration of mycoidesin (100 µM))”.

And the MIC ([18]; microdilution, 30°C, 16 h)?
The MIC was “NA (No activity was detected even at the highest concentration of mycoidesin (100 µM))”.

And the MBC [19, 23]?
Its MBC is “NA (No activity was detected even at the highest concentration of mycoidesin (100 µM))”.

What about the MIC ([19]; microdilution, 30°C, 16 h) of the same compound?
Its MIC is “NA (No activity was detected even at the highest concentration of mycoidesin (100 µM))”.

What about the “Intracellular accumulation of UDP-MurNAc-pentapeptide” value [20] of the same compound?
Its value is “observed”.

What about the effect on growth ([21]; 1×–32× MIC (0.39–12.5 µM), TSB, 30°C, 3 h, OD600) of the same compound?
Its effect on growth is “suppressed by mycoidesin in a time- and concentration-dependent manner”.

And the “type of antimicrobial effect” value ([21]; low and high concentrations (1×–32× MIC, 0.39–12.5 µM))?
The value was “bacteriostatic activity”.

What about the “cell death (viable count)” value ([21]; up to 32× MIC (12.5 µM), 30°C, 3 h, CFU) of the same compound?
Its value is “did not cause L. monocytogenes cell membrane damage or cell death”.

What about the cell membrane damage [22] of the same compound?
The cell membrane damage was “did not cause L. monocytogenes cell membrane damage or cell death”.

What about the residual antimicrobial activity (B. subtilis CMCC63501; pH 7.0, 37°C, mycoidesin 6.25 µM, nisin A 12.5 µM (4× MIC)) of the same compound?
The residual antimicrobial activity was “remained unchanged”.

What about the residual antimicrobial activity (B. subtilis CMCC63501; pH 7.0, 60°C, mycoidesin 6.25 µM (4× MIC)) of the same compound?
The residual antimicrobial activity was “decreased with increasing incubation time”.

And the residual antimicrobial activity (B. subtilis CMCC63501; pH 8.0, 37°C, mycoidesin 6.25 µM, nisin A 12.5 µM (4× MIC))?
Its residual antimicrobial activity is “decreased”.

What about the residual antimicrobial activity (B. subtilis CMCC63501; pH 8.0, 60°C, mycoidesin 6.25 µM (4× MIC)) of the same compound?
Its residual antimicrobial activity is “decreased with increasing incubation time”.
